{
  "source": "ChEMBL document CHEMBL4311978",
  "about": "“Transferrin conjugates of antitubercular drug isoniazid: Synthesis and in vitro efficacy” (Eur J Med Chem, 2019)",
  "key": {"[1]": {"system": "Mycobacterium tuberculosis", "assay": "Antitubercular activity against Mycobacterium tuberculosis H37Rv assessed as reduction in bacterial cell viability incubated for 5 days by microplate alamar blue assay", "format": "functional", "conditions": "120 h"}, "[2]": {"system": "Mycobacterium tuberculosis", "assay": "Antitubercular activity against Mycobacterium tuberculosis H37Rv infected in human THP1 cells assessed as reduction in CFU incubated for 48 hrs", "format": "functional, organism-based"}, "THP-1": {"system": "THP-1", "assay": "Cytotoxicity against human THP1 cells assessed as reduction in cell viability incubated for 48 hrs by MTT assay", "format": "cell-based", "conditions": "THP-1, 48 h"}},
  "note": "Activity calls are given as the source filed them. The calls are words filed in the database; no cut-off is given here.",
  "data": [
    {"smiles": "NNC(=O)c1ccncc1", "note": "[ISONIAZID]", "values": [
      {"measurement": "MIC90", "setting": "[1]", "result": 0.25, "unit": "mg/L"},
      {"measurement": "Activity", "setting": "[2]", "result": "Active"},
      {"measurement": "IC50", "setting": "THP-1", "result": "> 25", "unit": "mg/L"}
    ]}
  ]
}
